Target: T1, Recombinant human cathepsin A (Homo sapiens, UniProt P10619)
T1 construct: Recombinant human cathepsin A (residues 29-480, with a C-terminal 10-His tag); 10-His (C); purchased R&D Systems 1049-SE
T1 sequence (P10619 29-326 limits assumed): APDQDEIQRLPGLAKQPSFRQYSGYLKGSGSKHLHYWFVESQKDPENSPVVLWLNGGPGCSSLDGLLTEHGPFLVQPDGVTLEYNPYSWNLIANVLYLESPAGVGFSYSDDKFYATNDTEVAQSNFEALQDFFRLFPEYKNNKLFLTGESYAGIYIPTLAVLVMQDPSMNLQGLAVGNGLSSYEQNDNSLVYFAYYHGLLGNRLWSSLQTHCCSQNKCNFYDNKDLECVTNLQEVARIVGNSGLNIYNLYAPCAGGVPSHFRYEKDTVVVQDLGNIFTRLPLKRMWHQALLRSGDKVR
T1 sequence (P10619 327-480 limits assumed): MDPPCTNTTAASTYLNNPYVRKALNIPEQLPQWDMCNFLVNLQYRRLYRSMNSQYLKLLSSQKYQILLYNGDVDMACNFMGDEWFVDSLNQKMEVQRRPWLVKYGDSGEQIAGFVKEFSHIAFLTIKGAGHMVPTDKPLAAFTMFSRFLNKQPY
Assay: Cathepsin A inhibitory activity
Assay type: biochemical
Details: activated recombinant human cathepsin A, Bodipy FL-labeled bradykinin substrate, pH 5.5, microfluidic capillary electrophoresis
Procedure: Recombinant human cathepsin A (residues 29-480, with a C-terminal 10-His tag; R&D Systems, # 1049-SE) was proteolytically activated with recombinant human cathepsin L (R&D Systems, # 952-CY). Briefly, cathepsin A was incubated at 10 μg/ml with cathepsin L at 1 μg/ml in activation buffer (25 mM 2-(morpholin-4-yl)-ethanesulfonic acid (MES), pH 6.0, containing 5 mM dithiothreitol (DTT)) for 15 min at 37° C. Cathepsin L activity was then stopped by the addition of the cysteine protease inhibitor E-64 (N-(trans-epoxysuccinyl)-L-leucine-4-guanidinobutylamide; Sigma-Aldrich, # E3132; dissolved in activation buffer/DMSO) to a final concentration of 10 μM.
The activated cathepsin A was diluted in assay buffer (25 mM MES, pH 5.5, containing 5 mM DTT) and mixed with the test compound (dissolved in assay buffer containing (v/v) 3% DMSO) or, in the control experiments, with the vehicle in a multiple assay plate. […]
Uncleaved substrate and product were then separated by a microfluidic capillary electrophoresis on a LabChip® 3000 Drug Discovery System (12-Sipper-Chip; Caliper Life Sciences) and quantified by determination of the respective peak areas. Substrate turnover was calculated by dividing product peak area by the sum of substrate and product peak areas, and the enzyme activity and the inhibitory effect of the test compound thus quantified. […]

IC50: 100 nM
Structure (SMILES): CCC[C@H](NC(=O)[C@@H]1[C@H]2CCC[C@H]2CN1C(=O)[C@@H](NC(=O)[C@@H](NC(=O)c1cnccn1)C1CCCCC1)C(C)(C)C)C(=O)C(=O)NC1CC1 [Telaprevir, (1 S,3aR,6aS)-2-[(2S)-2-[[(2S)-2-Cyclohexyl-2-(pyrazine-2-carbonylamino)acetyl]amino]-3,3-dimethylbutanoyl]-N-[(3S)-1-(cyclopropylamino)-1,2-dioxohexan-3-yl]-3,3a,4,5,6,6a-hexahydro-1H-cyclopenta[c]pyrrole-1-carboxamide]
